Test results reported in patent US20220000854A1 (CHASE THERAPEUTICS CORPORATION, priority 2018, published 2022).

Tests used:
[1] = target: human wild-type alpha-synuclein (Homo sapiens, UniProt P37840); conditions: in vitro, by H2O2 plus cytochrome c; cited from earlier work
[2] = doses approved for motor symptoms of PD; 535 PD patients; cited from earlier work
[3] = 4.5 mg/day with levodopa, entcapone, selegiline and zonisamide; after switch from immediate-release to extended-release; cited from earlier work
[4] = system: human neuroblastoma SH-SY5Y cells; conditions: cited from earlier work
[5] = 5 mg/day of pramipexole, cited from earlier work
dopaminergic neurons = conditions: mouse PD model, cited from earlier work
alpha-synuclein = alpha-synuclein (Homo sapiens, UniProt P37840); conditions: cited from earlier work
[6] = Period 2 (with oral domperidone) versus Period 1 (pramipexole alone)
From the text: The study is single center, single-blind study.
To be enrolled in the study, participants must meet the following inclusion/exclusion key criteria:
History of drug or other significant allergy. • 5.

[7] = in vivo; cited from earlier work
[8] = large doses, acute systemic administration; cited from earlier work
Caenorhabditis elegans = conditions: in vivo; cited from earlier work
[9] = in vivo; cited from earlier work; remark: listed apart in the source
[10] = co-treatment with pramipexole; cited from earlier work
[11] = system: nigrostriatal dopaminergic neurons; conditions: chronic administration, compared with saline; cited from earlier work
[12] = system: nigral TH-positive neurons; conditions: MPTP-treated mice, 20 mg/kg; cited from earlier work
nigral dopamine neurons = conditions: 6-OHDA mice, injection of 30 mg/kg; cited from earlier work
[13] = 25 mg-50 mg, alone or with levodopa; cited from earlier work
[14] = system: rat corticostriatal slices; conditions: 0.3, 1, 3 and 10 μM; cited from earlier work
A53T α-synuclein = target: T1, A53T α-synuclein (Homo sapiens, UniProt P37840, A53T); conditions: oral 40 mg/kg/day, cited from earlier work
T1 construct: host or cells: rat brain in vivo, transduced with a viral vector

[15] = system: 6-OHDA-lesioned cell model; conditions: cited from earlier work
brain cell systems = conditions: cited from earlier work

In the case of `CCCN[C@H]1CCc2nc(N)sc2C1` [pramipexole, (S)-6-propylamino-4,5,6,7-tetrahydro-1,3-benzothiazole-2-amine], the “oligomerization of human wild-type alpha-synuclein” value [1] is listed as “decreases the in vitro oligomerization of human wild-type alpha-synuclein”, the “neuroprotective (disease modifying) activity” value [2] is listed as “failed to evidence neuroprotective (i.e., disease modifying) activity” and the hallucinations [3] is listed as “induce hallucinations”. For the same molecule, the aggregation of alpha-synuclein [4] was “inhibit the aggregation of alpha-synuclein”, the patients with nausea [5] was 76% and the patients with vomiting [5] was 39%. The “patients not able to complete the study” value ([5]; presumably intolerable GI adverse events) was 36%, the immunoreactivity for alpha-synuclein (dopaminergic neurons; rotenone) was “reducing immunoreactivity for alpha-synuclein” and the “toxic effects of rotenone on dopaminergic neurons” value (dopaminergic neurons) was “inhibits the toxic effects of rotenone on dopaminergic neurons”. For the same molecule, the “synuclein oligomer formation / aggregation in vitro” value (alpha-synuclein) was “diminishes synuclein oligomer formation in vitro” and the “Maximum Tolerated Dose (MTD) of pramipexole” value [6] was “higher than MTD during Period 1”.

For `CNCCC(Oc1ccc(C(F)(F)F)cc1)c1ccccc1` (stereo not drawn) [fluoxetine, 1-methylamino-3-phenyl-3-[4-(trifluoromethyl)phenoxy]propane], the MPTP induced damage [7] is listed as “protect against”, the “extracellular concentrations of norepinephrine and dopamine” value [8] is listed as “significant increase in extracellular concentrations of norepinephrine and dopamine” and the amyloid-β-induced paralysis (Caenorhabditis elegans) is listed as “significantly delay amyloid-β-induced paralysis”. For the same molecule, the 6-OHDA induced damage [9] was “protect against” and the “activity of pramipexole in the forced swimming test” value [10] was “enhance the activity of pramipexole”.

In the case of `NS(=O)(=O)Cc1noc2ccccc12` [zonisamide, benzo[d]isoxazol-3-ylmethanesulfonamide], the “survival of nigrostriatal dopaminergic neurons” value [11] is given as “improved the survival of nigrostriatal dopaminergic neurons”, the “loss of nigral TH-positive neurons” value [12] is given as “reduced the loss of nigral TH-positive neurons” and the striatal dopamine depletion [12] is given as “attenuating the associated striatal dopamine depletion”. The “loss of nigral dopamine neurons” value (nigral dopamine neurons) was “prevented the loss of nigral dopamine neurons”, the motor symptoms [13] was “improve motor symptoms” and the “rotenone-induced toxicity (loss of corticostriatal field potential amplitude)” value [14] was “significantly reduced the rotenone-induced toxicity”. The “survival of nigrostriatal dopamine neurons” value (A53T α-synuclein) was “no impact on the survival of nigrostriatal dopamine neurons”, the pace of degeneration (A53T α-synuclein; four weeks after viral vector injection, versus control group) was “significantly delayed the pace of degeneration” and the “synuclein oligomer formation / aggregation in vitro” value (alpha-synuclein) was “inhibits the in vitro oligomerization and aggregation of alpha-synuclein”.

In the case of `CCC(C)(C)C(=O)O[C@H]1C[C@@H](C)C=C2C=C[C@H](C)[C@H](CC[C@@H]3C[C@@H](O)CC(=O)O3)[C@H]21` [simvastatin, (1S,3R,7S,8S,8aR)-8-{2-[(2R,4R)-4-hydroxy-6-oxotetrahydro-2H-pyran-2-yl]ethyl}-3,7-dimethyl-1,2,3,7,8,8a-hexahydronaphthalen-1-yl 2,2-dimethylbutanoate], the “neuroprotection against dopaminergic neurodegeneration” value [15] is given as “robust neuroprotection against dopaminergic neurodegeneration” and the “protection against 6-hydroxydopamine (6-OHDA)” value (brain cell systems) is given as “protect against the deleterious consequences of the dopaminergic neurotoxin 6-hydroxydopamine”.
